Data published in patent publication US10300226B2, “Rescue inhaler” (priority 2015, dated 2019).
Several values for one entry are separate records, joined by “and”; a condition that tells them apart may be missing. Equal entries are not always repeated.

What was measured:
[1] = cited from earlier work; for density: 25 degrees Celsius (dry air: no temperature given); for gas density: standard temperature and atmospheric pressure, gram molecular weight/22.4
[2] = density of reference gases and prior-art heliox; format: physicochemical

| Structure (SMILES) | density [1] [kg/m^3] | gas density [1] | density of oxygen ([2]; 24 degree Celsius and 742 torr, d=molar mass x p/RT) [g/L] | density of oxygen (D=P/RT) ([2]; T 273K, P 130000) [g/L] |
| --- | --- | --- | --- | --- |
| N#N [Example N2, nitrogen] | 1.2506 | 1.25 g/L | – | – |
| [He] [Helium] | 0.1787 | 0.1785 g/L and 0.178 g/L | – | – |
| O=O [oxygen] | 1.429 | 1.428 g/L | 1.28 | 1.79 |
